Reference: ChEMBL document CHEMBL1201862, “PubChem BioAssay data set” (2004)
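Five concentrations, 48 hours, 96-well plates. GI50 is the concentration that inhibits growth by half.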 Active and inactive are the calls of the source. No stated cut-off is given here; in the data, active = GI50 up to about 1.1 µM and inactive = higher.

Assays:
Test in all cases: NCI anticancer screen, dose series, 48 h
[1] = tested on: COLO 205
[2] = tested on: DU-145
[3] = tested on: HCT-116
[4] = tested on: IGROV-1
[5] = tested on: MDA-MB-231
[6] = tested on: MOLT-4
[7] = tested on: NCI-H23
[8] = tested on: NCI-H460
[9] = tested on: NCI/ADR-RES
[10] = tested on: OVCAR-3
[11] = tested on: OVCAR-5
[12] = tested on: RXF 393
[13] = tested on: SF-268
[14] = tested on: SK-MEL-2
[15] = tested on: SK-MEL-5
[16] = tested on: U-251
[17] = tested on: UO-31
[18] = tested on: KM12

| Structure (SMILES) | GI50 [1] | GI50 [2] | GI50 [3] | GI50 [4] | GI50 [5] | GI50 [6] | GI50 [7] | GI50 [8] | GI50 [9] | GI50 [10] | GI50 [11] | GI50 [12] | GI50 [13] | GI50 [14] | GI50 [15] | GI50 [16] | GI50 [17] | GI50 [18] |
| --- | --- | --- | --- | --- | --- | --- | --- | --- | --- | --- | --- | --- | --- | --- | --- | --- | --- | --- |
| O=C(/C=C/c1ccc(O)c(O)c1)OCCCc1ccccc1 | 12.4 µM (inactive) | 14.1 µM (inactive) | 10.6 µM (inactive) | 3.34 µM (inactive) | 11.8 µM (inactive) | 0.946 µM (active) | 13.2 µM (inactive) | 20.2 µM (inactive) | 8.39 µM (inactive) | 1.71 µM (inactive) | 18.4 µM (inactive) | 11.2 µM (inactive) | 10.2 µM (inactive) | 17.5 µM (inactive) | 13.2 µM (inactive) | 11 µM (inactive) | 4.95 µM (inactive) |  |
| Cc1nn(CN2CCN(C)CC2)c(=S)n1/N=C/c1ccc(-c2ccc(Cl)cc2Cl)o1 | > 100 µM (inactive) | > 100 µM (inactive) | 74.6 µM (inactive) | 81.8 µM (inactive) | 63.8 µM (inactive) | 30.5 µM (inactive) | 71.6 µM (inactive) |  | 62.7 µM (inactive) | 64 µM (inactive) | > 100 µM (inactive) |  | 92.5 µM (inactive) | > 100 µM (inactive) | 43.3 µM (inactive) | 32.8 µM (inactive) | 92.9 µM (inactive) | > 100 µM (inactive) |
| S=C(Nc1ccc2c(c1)oc1ccccc12)c1cccs1 | > 100 µM (inactive) | 40.8 µM (inactive) | > 100 µM (inactive) | 37.1 µM (inactive) | 21.7 µM (inactive) | > 100 µM (inactive) | > 100 µM (inactive) |  | > 100 µM (inactive) | 23 µM (inactive) | > 100 µM (inactive) | 27.9 µM (inactive) | 38.1 µM (inactive) | > 100 µM (inactive) | > 100 µM (inactive) | 30.5 µM (inactive) | > 100 µM (inactive) |  |
| CC(C)(O)C1COC2=C1C(=O)c1ccccc1C2=O (configuration not stated) | 82 µM (inactive) | 20.9 µM (inactive) | 25.3 µM (inactive) | 40.6 µM (inactive) | 38.7 µM (inactive) | 25.6 µM (inactive) | 18.2 µM (inactive) | 54 µM (inactive) | 19.1 µM (inactive) | 24.9 µM (inactive) | 23.7 µM (inactive) |  | 21.6 µM (inactive) | 29.7 µM (inactive) | 22.3 µM (inactive) | 58.5 µM (inactive) | 81.1 µM (inactive) | 88.3 µM (inactive) |
| COc1ccc(-n2nnc3c(C#N)c(-c4ccccc4)c(C)n3c2=O)cc1 | 33.7 µM (inactive) | 74.8 µM (inactive) | 43.2 µM (inactive) | 24 µM (inactive) | 25.2 µM (inactive) |  | 80.4 µM (inactive) | 51.4 µM (inactive) | 66.2 µM (inactive) | 28.2 µM (inactive) | > 100 µM (inactive) | 28.4 µM (inactive) | 83.4 µM (inactive) | 28 µM (inactive) | 14.8 µM (inactive) | 32.7 µM (inactive) | 71.3 µM (inactive) | 48.9 µM (inactive) |
| CCOP(=O)(OCC)[C@]12C[C@@H](C)C=C[C@H]1COC2=O | > 100 µM (inactive) | > 100 µM (inactive) | > 100 µM (inactive) |  | > 100 µM (inactive) | > 100 µM (inactive) | > 100 µM (inactive) | > 100 µM (inactive) |  | > 100 µM (inactive) | > 100 µM (inactive) | > 100 µM (inactive) | > 100 µM (inactive) | > 100 µM (inactive) | > 100 µM (inactive) | > 100 µM (inactive) | > 100 µM (inactive) | > 100 µM (inactive) |
| Cc1nc(C(N)=S)sc1C(=O)CC(=O)C(=O)Nc1ccc(Br)cc1 |  |  | > 100 µM (inactive) | > 100 µM (inactive) | > 100 µM (inactive) |  | > 100 µM (inactive) | > 100 µM (inactive) | > 100 µM (inactive) | > 100 µM (inactive) | > 100 µM (inactive) | > 100 µM (inactive) | > 100 µM (inactive) | > 100 µM (inactive) | > 100 µM (inactive) | > 100 µM (inactive) | > 100 µM (inactive) | > 100 µM (inactive) |
| N#CCCN(CCC#N)CCN(CCN(CCC#N)CCC#N)CCN(CCC#N)CCC#N | > 100 µM (inactive) | > 100 µM (inactive) | > 100 µM (inactive) | > 100 µM (inactive) | > 100 µM (inactive) | > 100 µM (inactive) | > 100 µM (inactive) | > 100 µM (inactive) | > 100 µM (inactive) | > 100 µM (inactive) | > 100 µM (inactive) | > 100 µM (inactive) | > 100 µM (inactive) | > 100 µM (inactive) | > 100 µM (inactive) | > 100 µM (inactive) | > 100 µM (inactive) |  |
| COc1ccc(C#CC(=O)O)c(OC)c1 | > 100 µM (inactive) | > 100 µM (inactive) | > 100 µM (inactive) |  | > 100 µM (inactive) | > 100 µM (inactive) | > 100 µM (inactive) | > 100 µM (inactive) | > 100 µM (inactive) | > 100 µM (inactive) | > 100 µM (inactive) |  |  | > 100 µM (inactive) | > 100 µM (inactive) | > 100 µM (inactive) | > 100 µM (inactive) | > 100 µM (inactive) |
| COc1ccc2c(c1)C/C(=C\c1cccc3ccccc13)C2=O |  |  |  | 17.3 µM (inactive) |  | 4.89 µM (inactive) | 2.84 µM (inactive) | 4.99 µM (inactive) | 4.66 µM (inactive) | 13.4 µM (inactive) | 94 µM (inactive) | 0.0902 µM (active) | 18.4 µM (inactive) |  | 4.05 µM (inactive) | 8.71 µM (inactive) | 44.5 µM (inactive) | 5.41 µM (inactive) |
| Clc1ccc(-c2cn3c(nc4ccccc43)c(/C=C/c3cccs3)n2)cc1 | > 100 µM (inactive) | > 100 µM (inactive) | 97.9 µM (inactive) | 92 µM (inactive) | 53.7 µM (inactive) |  | 52.5 µM (inactive) | 67.8 µM (inactive) | > 100 µM (inactive) | > 100 µM (inactive) | > 100 µM (inactive) | > 100 µM (inactive) | 72.8 µM (inactive) | 41.6 µM (inactive) | > 100 µM (inactive) | 95.7 µM (inactive) | > 100 µM (inactive) | 33.7 µM (inactive) |
| O=c1[nH]nc(Cc2ccccc2)n1/N=C/c1cccnc1 | > 100 µM (inactive) | > 100 µM (inactive) | > 100 µM (inactive) | > 100 µM (inactive) | > 100 µM (inactive) | > 100 µM (inactive) | > 100 µM (inactive) | > 100 µM (inactive) | > 100 µM (inactive) | > 100 µM (inactive) | > 100 µM (inactive) | > 100 µM (inactive) | > 100 µM (inactive) |  | > 100 µM (inactive) | > 100 µM (inactive) | 71.6 µM (inactive) | 27.3 µM (inactive) |
| CC(Br)CN1CCOCC1 (configuration not stated) | > 100 µM (inactive) | > 100 µM (inactive) | > 100 µM (inactive) | > 100 µM (inactive) | > 100 µM (inactive) |  | > 100 µM (inactive) | > 100 µM (inactive) | > 100 µM (inactive) | > 100 µM (inactive) | > 100 µM (inactive) | > 100 µM (inactive) | > 100 µM (inactive) | > 100 µM (inactive) | > 100 µM (inactive) | > 100 µM (inactive) | > 100 µM (inactive) | > 100 µM (inactive) |
| Nc1n2nc(-c3ccccc3)sc2n[n+]1CC(=O)c1ccccc1 | 17 µM (inactive) | 17.8 µM (inactive) |  | 12.6 µM (inactive) |  | 3.66 µM (inactive) | 13.8 µM (inactive) | 11.5 µM (inactive) | 14 µM (inactive) | 14.7 µM (inactive) | 34.8 µM (inactive) | 10.8 µM (inactive) | 24.4 µM (inactive) | 38.5 µM (inactive) | 7.43 µM (inactive) | 12.6 µM (inactive) | 16.6 µM (inactive) | 6.3 µM (inactive) |
| Cn1c(=O)c2c(nc3sc4nc5ccccc5nc4n32)n(C)c1=O | > 100 µM (inactive) | > 100 µM (inactive) | > 100 µM (inactive) | > 100 µM (inactive) | > 100 µM (inactive) | > 100 µM (inactive) | > 100 µM (inactive) | > 100 µM (inactive) | > 100 µM (inactive) | > 100 µM (inactive) | > 100 µM (inactive) | > 100 µM (inactive) | > 100 µM (inactive) |  | 32.7 µM (inactive) | > 100 µM (inactive) | > 100 µM (inactive) | > 100 µM (inactive) |
| N#Cc1nc(Cc2cccs2)oc1N |  | > 100 µM (inactive) | > 100 µM (inactive) | > 100 µM (inactive) | > 100 µM (inactive) | > 100 µM (inactive) |  |  |  |  | > 100 µM (inactive) | > 100 µM (inactive) | > 100 µM (inactive) | > 100 µM (inactive) | > 100 µM (inactive) | > 100 µM (inactive) | 27.5 µM (inactive) | > 100 µM (inactive) |
| C/C(=N\Nc1nc2ccccc2n1C)c1ccncn1 | < 0.01 µM (active) |  | < 0.01 µM (active) | 0.0233 µM (active) | 0.0389 µM (active) | < 0.01 µM (active) | 0.0402 µM (active) | 0.23 µM (active) | 0.0395 µM (active) |  | 1.52 µM (inactive) | 1.55 µM (inactive) | 0.0762 µM (active) | 2.52 µM (inactive) | 0.102 µM (active) | 0.0904 µM (active) | 0.0391 µM (active) | 0.265 µM (active) |
